Here are results for 1 substance from US20170009228A1, “BIOLOGICAL MATERIALS AND THERAPEUTIC USES THEREOF” (IMPERIAL INNOVATIONS LIMITED, priority 2014, published 2017).

Assay [1] has as its system primary human macrophages. Briefly: Cytokine synthesis in primary human macrophages stimulated with tenascin-C or its domains. The assay is classed as cell-based. How it is done:
Human monocytes were isolated from peripheral blood (London Blood Bank) and macrophages were derived from monocytes after differentiation for 4 days with 100 ng/ml of M-CSF as previously described (Foxwell (1998)).
Immediately after isolation, RA membrane cells and macrophages were cultured at 1×10^5 cells/well in RPMI 1640 containing 10% (v/v) FBS and 100 U/ml (Units/ml) penicillin/streptomycin in 96-well tissue culture plates for 24 hours before stimulation. Synovial fibroblasts (used only at either passage number 2 or 3) were cultured at 1×10^4 cells/well in DMEM containing 10% (v/v) FBS and 100 U/ml penicillin/streptomycin in 96-well tissue culture plates for 24 hours before stimulation.
Cells were incubated for 24 hours at 37° C. with the indicated doses of tenascin-C and recombinant tenascin-C fragments (1.0 μM-1.0 nM). Cells were also stimulated where indicated with LPS (1 ng/ml for human macrophages, 10 ng/ml for human fibroblasts, RA membrane cells and HEKs, 100 ng/ml for MEFS and BMDMs and 10 ng/ml for HEKS), PAM3 (10 ng/ml for human macrophages, human fibroblasts, and HEKs, 100 ng/ml for MEFs and BMDMs), murine IL-1 (5 ng/ml for MEFS) and murine TNF-α (100 ng/ml for MEFS). Unless specifically stated otherwise rough LPS was used for in vitro studies.
Where stated, cells were pre-incubated with 10 μg/ml anti-CD14 antibody, 10 μg/ml IL1 receptor antagonist, 10 μg/ml anti-TLR2 antibody, 25 μg/ml anti-TLR4 antibody, 10 or 25 μg/ml isotype control antibody, 25 μg/ml polymyxin B, or 1 μg/ml msbB LPS, for 30 minutes at 37° C. before stimulation. Where stated, recombinant tenascin-C and FBG, and LPS were boiled for 15 minutes before addition to cells
(§1) Supernatants were subsequently examined for the presence of the cytokines TNF-α, IL-6, and IL-8 by enzyme-linked immunosorbent assay (ELISA) according to the manufacturer's instructions. Absorbance was read on a spectrophotometric ELISA plate reader (Labsystems Multiscan Biochromic, Vantaa, Finland) and analyzed using the Ascent software program (Thermo Labsystems, Altrincham, UK).

For the next assay, the system named is wild type mice. Briefly: Intra-articular injection of FBG in wild type mice, knee joint histology. The assay is classed as in vivo. As to the method: Wild type mice were anesthetized by intraperitoneal injection of 150 μl of Hypnorm diluted 1:10 in sterile water and then injected with 100 ng, 1 or 3 μg FBG in 10 μl of sterile PBS into the right knee joint using a sterile 33-gauge microcannula. Control mice received an injection of 10 μl PBS alone or were not injected.
On days 3 and 7, mice were euthanized, the knee joints were excised and fixed in 10% (volume/volume) buffered formalin, decalcified, with 10% EDTA and processed to paraffin.
Coronal tissue sections (4 μm) were cut at 7 depths throughout the joint; 80 μm apart and stained with hematoxylin and eosin or Safranin-O to assess joint pathology.
Inflammation (the influx of inflammatory cells into synovium (infiltrate) and the joint cavity (exudates), was graded using an arbitrary scale from 0 (no inflammation) to 3 (severe inflammation). Chondrocyte death was determined as the percentage of cartilage area containing empty lacunae in relation to the total area. Cartilage surface erosion was determined as the amount of cartilage lost in relation to the total cartilage area. Bone destruction was determined in 10 different areas of the total knee joint section. Destruction was graded on a scale of 0 (no damage) to 3 (complete loss of bone structure). Histological analysis was performed by an investigator who was blinded to the experimental groups. The mean score for each animal in an experimental group was calculated by averaging the histopathologic scores in at least 5 section depths per joint.

A further assay concerns MyD88. The experiment in a line: FBG stimulation of RA synovial fibroblasts infected with adenovirus expressing dominant negative MyD88. It counts as cell-based, human. Particulars: 1 μM FBG.
Text: Recombinant, replication-deficient adenoviral vectors encoding wild type MyD88 (AdMyD88wt), dominant-negative forms of MyD88 (AdMyD88dn) and the GFP control (AdGFP) were constructed in-house. A description of the synthesis of these viruses is in Andreakos (2004). All viruses used in this study are E1/E3 deleted, belong to the Ad5 serotype. Viruses were propagated in 293 human embryonic kidney cells, purified by ultracentrifugation through two cesium chloride gradients, and viral titers determined by plaque assay as previously described (Sacre (2007)).
For adenoviral gene transfer experiments, human RA synovial fibroblasts were incubated with adenoviral vectors at a multiplicity of infection of 100, washed after 2 hours, cultured in complete medium for 24 hours, then stimulated for 24 hours, after which time supernatants were collected.
as §1

Setting [2] is: 1 μg FBG, 3 days after injection.

“FBG: recombinant fibrinogen-like globe, 227 amino acid globular domain at the C terminal of tenascin-C”: in assay [1] (boiled 15 min, 25 μg/ml polymyxin B pre-incubation), the “heat and polymyxin B sensitivity of cytokine stimulation” value is “heat sensitive and unaffected by polymyxin B”. In addition, the “production of TNF-α, IL-6 and IL-8” value in assay [1] (human macrophages, 24 h, 1.0 μM-1.0 nM) is recorded as “to an equal extent to full-length tenascin-C”. For the same substance, the “inflammation and proteoglycan loss” value in the assay on wild type mice (100 ng FBG intra-articular) is “No inflammation or proteoglycan loss”. Besides, the knee joint histology entry in the assay on wild type mice (1 μg FBG intra-articular, 3 days) is “inflammatory cell infiltration (FIG. 6f), mild synovitis, pannus formation (FIG. 6g) and proteoglycan loss”. In the assay on wild type mice (setting [2]), the “histological quantification: cartilage surface erosion and bone damage” value was “modest amount”; the “histological quantification: cellular infiltrate, exudate and chondrocyte death” value is given as “high levels”. Also, the knee joint histology entry in the assay on wild type mice (3 μg FBG intra-articular) is reported as “A similar response”. In addition, the joint inflammation entry in the assay with wild type mice (wild type mice, intra-articular, 100 ng, 1 or 3 μg) is “transient and dose dependent stimulation of joint inflammation”. In addition, the “FBG induction of IL-6” value in the assay with MyD88 is “abolished”.
